PMC10051477, “5,8-Dimethyl-9H-carbazole Derivatives Blocking hTopo I Activity and Actin Dynamics” (Pharmaceuticals, 2023)

Legend:
[1] = test system: MCF-7 cells; test: MTT assay, MCF-7 cell viability; type: cell-based; conditions: Homo sapiens, MCF7, 72 h, mean ± standard deviation
Protocol: (§1) MTT assays (Sigma Aldrich (St.Louis, MO, USA)) were employed to evaluate the in vitro anticancer activities of all the studied compounds, as previously described. The compounds were tested at different concentrations (0.1-1-10-25-50-100 μM) for 72 h. The IC50 values were calculated from the percent (%) of control using GraphPad Prism 9 (GraphPad Software, La Jolla, CA, USA).

[2] = test system: MDA-MB-231 cells; test: MTT assay, MDA-MB-231 cell viability; type: cell-based; conditions: Homo sapiens, 72 h, mean ± standard deviation
Protocol: (§2) The inhibition of cancer cell growth exerted by the five considered compounds (1–5) has been evaluated in vitro against two models of breast cancer, namely the estrogen receptor positive (ER+) MCF-7 and the triple negative MDA-MB-231 human breast cancer cells (lacking ER, PR, and HER-2/Neu amplification), together with the normal counterpart, namely the non-malignant breast epithelial cells MCF-10A. […] Moreover, no effects were recorded against the MCF-7 cells, at least until the concentration of 100 μM. […] Thus, the two lead compounds were chosen for subsequent studies aiming at individuating the molecular mechanisms underlying the observed anticancer activity.
as §1

[3] = test system: MCF-10A cells; test: MTT assay, MCF-10A normal cell viability; type: cell-based, human; conditions: Homo sapiens, MCF-10A, 72 h, non-malignant breast epithelial cells, mean ± standard deviation
Protocol: as §2, §1

[4] = target: T1, labeled rabbit muscle actin (Oryctolagus cuniculus, UniProt P68135); test: In vitro actin polymerization assay; type: biochemical; conditions: 5 µM, 1 h, room temperature; vehicle plateau about 25,000 RFU
T1 construct: fluorescent label (chemical); purchased Abcam; host or cells: rabbit muscle
Source text: With the aim to confirm the immunofluorescence results and substantiate whether compounds 3 and 4 could inhibit the actin polymerization mechanism and/or boost the F-actin depolymerization, we employed a fluorescent-labeled purified rabbit actin. LA and cytochalasin B (CB) were used as positive controls for both the polymerization inhibition and F-actin subunits dissociation, or only the polymerization inhibition, respectively. In the negative control reaction (only vehicle), actin monomers undergo a normal polymerization, as visible in Figure 5, panel A. The reaction curve rises in approximately 5 min to a value of about 25,000 RFU (plateau) which remains almost unvaried until the end of the experiment. Contrariwise, the two reference molecules, i.e., LA and CB, used at the concentration of 5 µM, braked the actin polymerization, mostly LA rather than CB, under the adopted experimental conditions, and the LA curve dropped until a value of about 8000 RFU at the reaction end.
(§3) An Actin Polymerization/Depolymerization Assay Kit, purchased from Abcam, was employed to assess the ability of compounds 3 and 4 to interfere with the actin polymerization and depolymerization processes. To perform the essays, the manufacturer’s instructions were followed with some modifications. In particular, polymerization assay was carried out incubating in a white 96-well plate the reconstituted actin with supplemented Buffer G, compounds 3 and 4 and then Buffer P was added in order to induce actin polymerization. For the Actin Depolymerization Assay, the actin polymerization was first induced, incubating supplemented Buffers P and G at room temperature for one hour. Then, compounds 3 and 4 were added at a concentration of 5 μM. Latrunculin A (LA) and Cytochalasin B (CB) were utilized as positive control at a concentration of 5 μM. For both the assays, the assemblage of the actin filaments was defined by measuring the fluorescence (Ex/Em: 365/410 nm) in kinetic mode for 1 h at room temperature in a microplate reader.

[5] = target: T2, F-actin (labeled rabbit muscle actin) (Oryctolagus cuniculus, UniProt P68135); test: In vitro F-actin depolymerization assay; type: biochemical; conditions: 5 µM added after 1 h polymerization
T2 construct: fluorescent label (chemical); purchased Abcam; host or cells: rabbit muscle
Protocol: Moreover, we performed the F-actin depolymerization assay to verify whether compounds 3 and 4 could induce the actin depolymerization as well as the LA does (Figure 5, panel B). For this purpose, we started the actin polymerization for one hour under the same experimental conditions used previously. Then, we added the compounds or the reference molecules at the concentration of 5 µM and monitored the reactions for an additional hour. […] The addition of CB was not able to produce the same effect of LA. […] Contrarily, both the compounds were able to induce an important depolymerizing effect on the F-actin, most evident in the first 7 min after the exposure. Particularly, compounds 3 and 4 produced final values of approximately 14,000 and 12,000 RFU, respectively. […] This combined effect leads to a disorganization of the intracellular actin network.
as §3

[6] = test system: actin system in MDA-MB-231 cells; test: Actin immunofluorescence in MDA-MB-231 cells; type: cell-based, human; conditions: MDA-MB-231, 24 h; compounds at their IC50 values, LA 0.1 µM
Protocol: In order to determine whether the lead compounds 3 and 4 may effectively regulate the actin system, we employed both the immunofluorescence and in vitro direct enzymatic assays. […] As negative and positive controls, we used the only vehicle (DMSO) and latrunculin A (LA) at a concentration of 0.1 µM, respectively. After processing, the cells were observed under a fluorescent microscope, (see experimental section for the details). […] Moreover, the latter looked brighter and stocked in the cytoplasm in dot-like structures or thicker fibers. Again, the MDA-MB-231 cells, under exposure to compounds 3 and 4, lost their shape (Figure 4, compounds 3 and 4, panels B), as we observed under LA treatment, and with a very similar arrangement of the actin network.
The cells were plated and further processed, as previously indicated. Specifically, the rabbit anti-β-Actin (Santa Cruz Biotechnology, Dallas, TX, USA), diluted 1:100 in bovine serum albumin (BSA) 2%, was used as primary antibody and incubated overnight at 4 °C. The secondary antibody, Alexa Fluor® 488 conjugate goat-anti-rabbit, was diluted 1:500 and incubated for 2 h at 37 °C. DAPI (4′,6-diamidino-2-phenylindole, Sigma Aldrich, Milan, Italy) 0.2 μg/mL was used for nuclei staining. A fluorescence microscope (Leica DM 6000) was utilized for fluorescence detection (40× magnification). LAS-X software allowed acquiring and processing all the fluorescence images, which are representative of three separate experiments.

SMILES	IC50 [1]	IC50 [2]	IC50 [3]	Actin polymerization, final fluorescence value of reaction curve [4]	F-actin depolymerization, final fluorescence value of reaction curve ([5]; monitored 1 h, vehicle 20,000 RFU)	Effect on actin organization (immunofluorescence) [6]	F-actin depolymerizing effect [5]
Cc1ccc(C)c2c1[nH]c1ccc(O)cc12 [Compound 5, 5,8-Dimethyl-9H-carbazol-3-ol]	> 100 µM	6.59 ± 0.68 µM	> 100 µM	–	–	–	–
C/C1=C/C(=O)O[C@@H]2C[C@@H](CC[C@H](C)/C=C\C=C\CC1)O[C@@](O)([C@@H]1CSC(=O)N1)C2 [LA, Latrunculin A, reference compound]	–	–	–	about 8000 RFU	about 8000 RFU	the cells underwent an important shape change	–
Cc1c2ccncc2c(C)c2c1[nH]c1ccccc12 [Ellipticine, reference compound]	–	1.92 ± 0.38 µM	1.12 ± 0.51 µM	–	–	–	–
C=C1[C@@H](C)[C@H]2[C@H](Cc3ccccc3)NC(=O)[C@]23OC(=O)/C=C/[C@H](O)CCC[C@@H](C)C/C=C/[C@H]3[C@@H]1O [CB, Cytochalasin B, reference compound]	–	–	–	approximately 13,000 RFU	–	–	does not induce the F-actin depolymerization

Now from value to compound, other results behind:

IC50 [1]	IC50 [2]	SMILES	IC50 [3]	Actin polymerization, final fluorescence value of reaction curve [4]	F-actin depolymerization, final fluorescence value of reaction curve ([5]; monitored 1 h, vehicle 20,000 RFU)	Effect on actin organization (immunofluorescence) [6]	F-actin depolymerizing effect [5]
> 100 µM	43.5 ± 1.21 µM	Cc1ccc(C)c2c1c1cc(Br)ccc1n2C(=O)OC(C)(C)C [Compound 1]	> 100 µM	–	–	–	–
> 100 µM	8.19 ± 0.26 µM	COc1ccc2c(c1)c1c(C)ccc(C)c1n2C(=O)OC(C)(C)C [Compound 2]	89.16 ± 0.47 µM	–	–	–	–
